# Assay results taken from ChEMBL document CHEMBL1743201, “Casarett and Doull's Toxicology The Basic Science of Poisons, 7th edition” (2008).
# Tests used:
# Assay type in all cases: ADME
# Sulfotransferase 1E1 = target: T1, Sulfotransferase 1E1 (Homo sapiens, UniProt P49888); assay: Major substrate of human cytosolic sulfotransferase SULT1E1
# T1 sequence (P49888 whole entry): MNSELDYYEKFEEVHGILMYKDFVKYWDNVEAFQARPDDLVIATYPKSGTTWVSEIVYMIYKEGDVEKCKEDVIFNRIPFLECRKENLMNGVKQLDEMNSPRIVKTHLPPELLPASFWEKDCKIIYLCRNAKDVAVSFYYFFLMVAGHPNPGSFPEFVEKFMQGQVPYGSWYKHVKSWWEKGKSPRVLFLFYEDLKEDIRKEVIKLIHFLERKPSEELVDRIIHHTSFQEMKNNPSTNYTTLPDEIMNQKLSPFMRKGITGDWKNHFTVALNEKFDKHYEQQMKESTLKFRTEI
# [1] = target: T2, UDP-glucuronosyltransferase 1A7 (Homo sapiens, UniProt Q9HAW7); assay: Substrate of human UDP-glucuronosyltransferase UGT1A7
# T2 sequence (Q9HAW7 whole entry): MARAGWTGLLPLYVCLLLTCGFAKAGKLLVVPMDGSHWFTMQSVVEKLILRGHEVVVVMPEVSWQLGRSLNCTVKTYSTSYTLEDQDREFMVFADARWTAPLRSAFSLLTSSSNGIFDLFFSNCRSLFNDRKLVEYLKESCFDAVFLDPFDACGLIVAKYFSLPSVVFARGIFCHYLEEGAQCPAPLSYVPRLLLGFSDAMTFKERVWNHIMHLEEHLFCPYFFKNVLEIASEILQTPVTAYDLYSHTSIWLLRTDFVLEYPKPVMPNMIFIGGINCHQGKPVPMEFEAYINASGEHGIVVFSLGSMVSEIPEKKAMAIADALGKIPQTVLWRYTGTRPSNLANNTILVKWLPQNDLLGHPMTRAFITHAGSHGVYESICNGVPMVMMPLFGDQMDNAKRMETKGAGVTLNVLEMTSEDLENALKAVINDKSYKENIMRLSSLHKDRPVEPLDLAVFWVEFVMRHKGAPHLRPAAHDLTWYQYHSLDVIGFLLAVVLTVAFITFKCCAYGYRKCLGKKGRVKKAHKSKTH
# Cytochrome P450 1A2 [2] = target: T3, Cytochrome P450 1A2 (Homo sapiens, UniProt P05177); assay: Clinically relevant inducers of human liver microsomal P450 enzymes, isoform CYP1A2; conditions: microsomes
# T3 sequence (P05177 whole entry): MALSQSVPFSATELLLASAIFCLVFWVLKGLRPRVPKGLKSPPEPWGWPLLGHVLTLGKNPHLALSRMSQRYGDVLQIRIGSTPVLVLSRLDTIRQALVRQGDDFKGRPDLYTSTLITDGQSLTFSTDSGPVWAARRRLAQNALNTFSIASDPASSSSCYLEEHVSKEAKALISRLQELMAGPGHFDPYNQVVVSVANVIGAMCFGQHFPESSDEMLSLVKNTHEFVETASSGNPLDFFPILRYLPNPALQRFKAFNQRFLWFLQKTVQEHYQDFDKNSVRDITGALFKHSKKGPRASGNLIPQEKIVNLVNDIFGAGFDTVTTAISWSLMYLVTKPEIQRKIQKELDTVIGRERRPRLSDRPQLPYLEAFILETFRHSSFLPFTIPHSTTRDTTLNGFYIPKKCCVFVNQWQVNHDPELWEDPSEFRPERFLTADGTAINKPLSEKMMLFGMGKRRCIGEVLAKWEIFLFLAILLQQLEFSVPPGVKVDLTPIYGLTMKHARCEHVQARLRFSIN
# [3] = target: T4, UDP-glucuronosyltransferase 1A6 (Homo sapiens, UniProt P19224); assay: Substrate of human UDP-glucuronosyltransferase UGT1A6
# T4 sequence (P19224 whole entry): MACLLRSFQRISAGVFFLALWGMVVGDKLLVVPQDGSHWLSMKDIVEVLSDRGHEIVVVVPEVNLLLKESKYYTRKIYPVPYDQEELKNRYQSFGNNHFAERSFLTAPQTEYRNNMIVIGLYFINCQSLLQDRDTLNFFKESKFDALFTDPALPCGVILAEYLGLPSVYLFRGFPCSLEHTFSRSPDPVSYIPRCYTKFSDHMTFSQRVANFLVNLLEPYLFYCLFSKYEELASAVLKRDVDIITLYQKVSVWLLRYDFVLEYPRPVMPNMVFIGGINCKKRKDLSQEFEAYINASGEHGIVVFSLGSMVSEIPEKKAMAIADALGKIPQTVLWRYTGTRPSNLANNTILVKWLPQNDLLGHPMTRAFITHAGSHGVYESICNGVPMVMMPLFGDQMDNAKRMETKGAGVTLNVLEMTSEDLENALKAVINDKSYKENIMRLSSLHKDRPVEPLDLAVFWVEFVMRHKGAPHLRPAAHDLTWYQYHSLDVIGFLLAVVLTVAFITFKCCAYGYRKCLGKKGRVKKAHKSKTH
# [4] = target: T5, UDP-glucuronosyltransferase 2B15 (Homo sapiens, UniProt P54855); assay: Substrate of human UDP-glucuronosyltransferase UGT2B15
# T5 sequence (P54855 whole entry): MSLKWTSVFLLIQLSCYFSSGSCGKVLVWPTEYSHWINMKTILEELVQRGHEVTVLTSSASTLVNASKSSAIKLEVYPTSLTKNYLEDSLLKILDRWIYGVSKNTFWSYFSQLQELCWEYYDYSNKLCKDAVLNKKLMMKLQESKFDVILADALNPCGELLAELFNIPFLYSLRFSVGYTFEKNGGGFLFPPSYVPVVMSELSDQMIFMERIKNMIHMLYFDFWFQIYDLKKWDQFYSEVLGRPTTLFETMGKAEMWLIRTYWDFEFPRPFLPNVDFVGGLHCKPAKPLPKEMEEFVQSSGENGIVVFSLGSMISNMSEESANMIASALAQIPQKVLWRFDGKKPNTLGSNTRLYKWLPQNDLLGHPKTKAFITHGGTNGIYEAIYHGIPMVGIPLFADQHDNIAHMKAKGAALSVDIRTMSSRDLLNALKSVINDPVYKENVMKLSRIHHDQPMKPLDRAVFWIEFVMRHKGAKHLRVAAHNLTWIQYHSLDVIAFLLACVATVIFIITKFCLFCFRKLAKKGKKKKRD
# [5] = target: T6, UDP-glucuronosyltransferase 1A4 (Homo sapiens, UniProt P22310); assay: Substrate of human UDP-glucuronosyltransferase UGT1A4
# T6 sequence (P22310 whole entry): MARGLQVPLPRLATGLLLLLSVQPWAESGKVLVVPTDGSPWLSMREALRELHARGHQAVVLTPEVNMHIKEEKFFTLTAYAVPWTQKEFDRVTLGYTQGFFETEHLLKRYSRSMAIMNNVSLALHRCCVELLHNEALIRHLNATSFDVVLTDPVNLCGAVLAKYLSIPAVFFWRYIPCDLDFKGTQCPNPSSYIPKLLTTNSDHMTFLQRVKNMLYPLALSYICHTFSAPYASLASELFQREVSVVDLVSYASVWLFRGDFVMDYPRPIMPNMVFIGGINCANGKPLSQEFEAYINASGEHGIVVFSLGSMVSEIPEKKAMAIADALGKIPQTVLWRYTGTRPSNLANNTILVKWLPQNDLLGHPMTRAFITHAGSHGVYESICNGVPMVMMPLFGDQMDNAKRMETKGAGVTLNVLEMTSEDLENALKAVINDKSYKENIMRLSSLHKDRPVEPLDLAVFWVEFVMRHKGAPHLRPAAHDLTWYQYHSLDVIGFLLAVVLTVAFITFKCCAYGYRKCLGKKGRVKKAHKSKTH
# [6] = target: T7, UDP-glucuronosyltransferase 2B4 (Homo sapiens, UniProt P06133); assay: Substrate of human UDP-glucuronosyltransferase UGT2B4
# T7 sequence (P06133 whole entry): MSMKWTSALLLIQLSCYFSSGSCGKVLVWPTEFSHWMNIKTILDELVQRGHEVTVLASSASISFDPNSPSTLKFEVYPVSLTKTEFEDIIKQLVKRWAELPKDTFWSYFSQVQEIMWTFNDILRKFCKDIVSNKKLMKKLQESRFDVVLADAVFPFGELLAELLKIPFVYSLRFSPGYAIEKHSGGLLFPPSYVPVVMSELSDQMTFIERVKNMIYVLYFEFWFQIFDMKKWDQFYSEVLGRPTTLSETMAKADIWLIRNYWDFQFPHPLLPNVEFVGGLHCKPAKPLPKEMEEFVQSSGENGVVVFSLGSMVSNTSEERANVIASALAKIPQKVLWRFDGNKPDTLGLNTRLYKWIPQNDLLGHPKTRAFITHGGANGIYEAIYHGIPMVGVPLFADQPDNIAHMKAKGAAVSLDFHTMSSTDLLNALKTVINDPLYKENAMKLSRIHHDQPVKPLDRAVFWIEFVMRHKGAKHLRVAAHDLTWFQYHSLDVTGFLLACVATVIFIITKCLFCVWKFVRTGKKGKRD
# Cytochrome P450 2D6 = Cytochrome P450 2D6 (Homo sapiens, UniProt P10635); assay: Clinically relevant inhibitors of human liver microsomal P450 enzymes, isoform CYP2D6; conditions: microsomes
# Chain of Cytochrome P450 2D6 (P10635 whole entry, canonical isoform): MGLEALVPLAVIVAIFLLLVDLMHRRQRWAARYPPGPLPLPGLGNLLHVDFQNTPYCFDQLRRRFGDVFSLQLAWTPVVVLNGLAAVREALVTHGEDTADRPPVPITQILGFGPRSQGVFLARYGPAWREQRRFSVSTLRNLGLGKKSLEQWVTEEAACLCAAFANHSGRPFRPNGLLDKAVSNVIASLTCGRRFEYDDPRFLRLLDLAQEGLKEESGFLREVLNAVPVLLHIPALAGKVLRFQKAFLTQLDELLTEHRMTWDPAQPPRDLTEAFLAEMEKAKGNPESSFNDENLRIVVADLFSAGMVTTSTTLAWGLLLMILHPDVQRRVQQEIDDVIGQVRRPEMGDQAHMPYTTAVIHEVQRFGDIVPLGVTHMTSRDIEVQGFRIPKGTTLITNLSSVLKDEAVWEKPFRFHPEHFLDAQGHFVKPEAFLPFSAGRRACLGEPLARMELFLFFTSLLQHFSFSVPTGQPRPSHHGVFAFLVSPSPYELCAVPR
# Cytochrome P450 1A2 [7] = target: T3, Cytochrome P450 1A2; assay: Clinically relevant inhibitors of human liver microsomal P450 enzymes, isoform CYP1A2; conditions: microsomes
# Cytochrome P450 2C19 = Cytochrome P450 2C19 (Homo sapiens, UniProt P33261); assay: Clinically relevant substrates of human liver microsomal P450 enzymes, isoform CYP2C19; conditions: microsomes
# Chain of Cytochrome P450 2C19 (P33261 whole entry, canonical isoform): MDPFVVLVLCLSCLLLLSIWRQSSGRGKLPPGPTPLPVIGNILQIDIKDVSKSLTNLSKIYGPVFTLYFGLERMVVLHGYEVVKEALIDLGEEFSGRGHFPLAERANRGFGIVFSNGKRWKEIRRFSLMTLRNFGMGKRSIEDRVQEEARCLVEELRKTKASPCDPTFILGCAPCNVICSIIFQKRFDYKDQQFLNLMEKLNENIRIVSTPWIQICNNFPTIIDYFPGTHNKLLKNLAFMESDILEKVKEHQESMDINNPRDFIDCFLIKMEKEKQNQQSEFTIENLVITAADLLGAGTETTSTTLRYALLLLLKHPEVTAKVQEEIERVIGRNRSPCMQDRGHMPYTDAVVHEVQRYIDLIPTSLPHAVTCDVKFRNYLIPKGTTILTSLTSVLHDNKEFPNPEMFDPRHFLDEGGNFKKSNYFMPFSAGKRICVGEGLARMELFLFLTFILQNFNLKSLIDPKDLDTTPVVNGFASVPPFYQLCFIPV
# [8] = target: T8, UDP-glucuronosyltransferase 1A10 (Homo sapiens, UniProt Q9HAW8); assay: Substrate of human UDP-glucuronosyltransferase UGT1A10
# T8 sequence (Q9HAW8 whole entry): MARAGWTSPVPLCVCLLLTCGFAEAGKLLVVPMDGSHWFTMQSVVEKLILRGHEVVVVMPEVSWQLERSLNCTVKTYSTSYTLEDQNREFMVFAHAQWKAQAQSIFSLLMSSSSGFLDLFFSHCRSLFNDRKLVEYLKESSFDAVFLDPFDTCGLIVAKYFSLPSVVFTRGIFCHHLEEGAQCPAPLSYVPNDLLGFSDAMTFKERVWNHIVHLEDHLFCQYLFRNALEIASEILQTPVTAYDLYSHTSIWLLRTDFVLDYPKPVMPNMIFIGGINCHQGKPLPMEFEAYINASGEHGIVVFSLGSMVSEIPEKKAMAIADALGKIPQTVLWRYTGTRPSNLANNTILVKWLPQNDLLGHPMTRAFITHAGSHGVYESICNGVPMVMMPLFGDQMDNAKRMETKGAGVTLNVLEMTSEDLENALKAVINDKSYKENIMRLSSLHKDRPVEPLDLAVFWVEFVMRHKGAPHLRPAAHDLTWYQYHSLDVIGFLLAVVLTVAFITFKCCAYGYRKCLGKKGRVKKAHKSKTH
# [9] = target: T9, UDP-glucuronosyltransferase 1A8 (Homo sapiens, UniProt Q9HAW9); assay: Substrate of human UDP-glucuronosyltransferase UGT1A8
# T9 sequence (Q9HAW9 whole entry): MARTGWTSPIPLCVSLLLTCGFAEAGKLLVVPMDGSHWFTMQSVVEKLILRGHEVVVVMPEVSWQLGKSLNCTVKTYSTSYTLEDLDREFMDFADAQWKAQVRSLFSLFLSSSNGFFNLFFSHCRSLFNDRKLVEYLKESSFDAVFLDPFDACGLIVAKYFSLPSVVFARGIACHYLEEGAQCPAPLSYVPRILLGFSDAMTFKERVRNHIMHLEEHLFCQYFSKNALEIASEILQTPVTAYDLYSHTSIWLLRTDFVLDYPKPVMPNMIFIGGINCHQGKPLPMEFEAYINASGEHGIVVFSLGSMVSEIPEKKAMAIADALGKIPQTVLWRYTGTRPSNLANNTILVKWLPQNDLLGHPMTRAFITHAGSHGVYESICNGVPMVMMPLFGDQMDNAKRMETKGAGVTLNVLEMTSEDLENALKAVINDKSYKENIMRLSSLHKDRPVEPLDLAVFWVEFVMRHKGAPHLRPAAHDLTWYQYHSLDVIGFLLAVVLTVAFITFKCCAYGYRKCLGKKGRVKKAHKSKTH
structure (smiles),measurement,setting,value
C[C@]12CC[C@@H]3c4ccc(O)c(O)c4CC[C@H]3[C@@H]1CCC2=O,Activity,Sulfotransferase 1E1,Substrate
same,Activity,[1],Substrate
Oc1ccc(-c2ccccc2)cc1,Activity,[1],Substrate
Cc1ccc2cc3c(ccc4ccccc43)c3c2c1CC3 [3-METHYLCHOLANTHRENE],Activity,Cytochrome P450 1A2 [2],Inducer
CCc1c2c(nc3ccc(O)cc13)-c1cc3c(c(=O)n1C2)COC(=O)[C@]3(O)CC [7-ETHYL-10-HYDROXYCAMPTOTHECIN],Activity,[3],Substrate
same,Activity,[1],Substrate
same,Activity,[4],Substrate
CN(C)CCC=C1c2ccccc2CCc2ccccc21 [AMITRIPTYLINE],Activity,[5],Substrate
C[C@]12CC[C@@H](O)C[C@@H]1CC[C@@H]1[C@@H]2CC[C@]2(C)C(=O)CC[C@@H]12 [ANDROSTERONE],Activity,[6],Substrate
O=c1cc(-c2ccccc2)oc2ccc3ccccc3c12 [BETA-NAPHTHOFLAVONE],Activity,Cytochrome P450 1A2 [2],Inducer
CN/C(=N/CCSCc1nc[nH]c1C)NC#N [CIMETIDINE],Activity,Cytochrome P450 2D6,Inhibitor
same,Activity,Cytochrome P450 1A2 [7],Inhibitor
COc1ccc2c3c1O[C@H]1[C@@H](O)C=C[C@H]4[C@@H](C2)N(C)CC[C@@]341 [CODEINE],Activity,[6],Substrate
CN(C)CCC=C1c2ccccc2C=Cc2ccccc21 [CYCLOBENZAPRINE],Activity,[5],Substrate
Nc1nnc(-c2cccc(Cl)c2Cl)c(N)n1 [LAMOTRIGINE],Activity,[5],Substrate
Cc1c(OCC(F)(F)F)ccnc1C[S+]([O-])c1nc2ccccc2[nH]1 (stereo unspecified) [LANSOPRAZOLE],Activity,Cytochrome P450 1A2 [2],Inducer
same,Activity,Cytochrome P450 2C19,Substrate
COc1c(C)c2c(c(O)c1C/C=C(\C)CCC(=O)O)C(=O)OC2 [MYCOPHENOLIC ACID],Activity,[8],Substrate
same,Activity,[9],Substrate
same,Activity,[1],Substrate
CCCCCCCCOC(=O)c1cc(O)c(O)c(O)c1 [OCTYL_GALLATE],Activity,[1],Substrate
Cc1cc2c(s1)Nc1ccccc1N=C2N1CCN(C)CC1 [OLANZAPINE],Activity,[5],Substrate
Fc1ccc([C@@H]2CCNC[C@H]2COc2ccc3c(c2)OCO3)cc1 [PAROXETINE],Activity,Cytochrome P450 2D6,Inhibitor
CN[C@H]1CC[C@@H](c2ccc(Cl)c(Cl)c2)c2ccccc21 [SERTRALINE],Activity,Cytochrome P450 2D6,Inhibitor
CN(C/C=C/C#CC(C)(C)C)Cc1cccc2ccccc12 [TERBINAFINE],Activity,Cytochrome P450 2D6,Inhibitor
CN1CCN(CCCN2c3ccccc3Sc3ccc(C(F)(F)F)cc32)CC1 [TRIFLUOPERAZINE],Activity,[5],Substrate
